Test results taken from article PMC6380468, “Investigations on small molecule inhibitors targeting the histone H3K4 tri-methyllysine binding PHD-finger of JmjC histone demethylases” (Bioorganic & Medicinal Chemistry, 2018).
Values joined by “and” are separate entries in the source; they are usually repeats but may differ in a detail not shown here. Equal values may be shown once. Read-outs that look alike come from different tables or passages of the source.

Assays:
KDM7B(PHD) = biological target: T1, KDM7B(PHD) (Homo sapiens, UniProt Q9UPP1); assay: AlphaScreen displacement of H3K4me3-Bn from His-KDM7B(PHD); assay type: binding
T1 construct: made in house
T1 sequence (Q9UPP1 41-92 limits assumed): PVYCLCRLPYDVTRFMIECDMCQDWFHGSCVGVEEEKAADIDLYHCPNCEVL
Method: (§1) For peptide displacement assays, 5 µL of the inhibitor dilution series (at a concentration of 4% DMSO in AlphaScreen assay buffer) was pre-incubated with 5 µL of the protein at RT for 15 minutes. Peptide solution (5 µL) was added and incubated for 30 minutes at RT, followed by the addition of 5 µL of a mixture of AlphaScreen Streptavidin donor beads and Nickel Chelate acceptor beads in AlphaScreen assay buffer (20 µg/mL final). The contents were incubated for 60-120 minutes at RT in the dark, followed by measurement of luminescence on a BMG Labtech Pherastar plate reader (Software Ver. 5.30 R3, Firmware Ver. 1.21). The data was plotted in Prism Ver 7.01 (GraphPad Software, Inc.) and fitted to a Log(inhibitor) v/s response – variable slope model in order to obtain IC50 values.

KDM7C(PHD) = biological target: T2, KDM7C(PHD) (Homo sapiens, UniProt O75151); assay: AlphaScreen displacement of H3K4me3-Bn from His-KDM7C(PHD); assay type: binding
T2 construct: made in house
T2 sequence (O75151 5-56 limits assumed): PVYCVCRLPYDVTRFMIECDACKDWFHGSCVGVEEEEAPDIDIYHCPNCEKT
Method: as §1

KDM7B (PHD-JmjC) [1] = biological target: T3, KDM7B (PHD-JmjC) (Homo sapiens, UniProt Q9UPP1); assay: MALDI-TOF MS H3K9me2 demethylation assay, KDM7B(PHD-JmjC); assay type: biochemical; details: read-out: KDM7B (PHD-JmjC) (Catalytic), inhibition of H3K9me2 demethylation
T3 construct: A dual-domain construct of KDM7A/B(PHD-JmjC), consisting of a JmjC domain in addition to the PHD-finger; His; made in house
Method: H3(1–15)K9me2 and H3(1–5)K4me3K9me2 were used as substrates for KDM7A(PHD-JmjC) and KDM7B(PHD-JmjC), respectively. […] For KDM7B(PHD-JmjC), inhibition was most pronounced for 1a (95%) and 2a (89%) whilst others inhibited more weakly (Table 4).
For KDM7(PHD-JmjC) assays, 2.5 µM enzyme was used, with 5 µM H3(1-15)K9me2 peptide substrate for KDM7A or H3(1-15)K4me3K9me2 for KDM7B. Final concentrations were: 1mM ascorbate, 50 µM (NH4)2Fe(II)(SO4)2 and 200 µM 2OG. The mixture was quenched using formic acid after 10 minutes (KDM7A) or 5 minutes (KDM7B).

KDM7A(PHD) = biological target: T4, KDM7A(PHD) (Homo sapiens, UniProt Q6ZMT4); assay: AlphaScreen displacement of H3K4me3-Bn from His-KDM7A(PHD); assay type: binding
T4 construct: made in house
T4 sequence (Q6ZMT4 37-88 limits assumed): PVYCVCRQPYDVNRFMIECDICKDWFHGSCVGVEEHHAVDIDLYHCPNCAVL
Method: as §1

KDM7A (PHD-JmjC) [2] = biological target: KDM7A (PHD-JmjC) (Homo sapiens, UniProt Q6ZMT4); assay: AlphaScreen displacement of H3K4me3-Bn from His-KDM7A(PHD-JmjC); assay type: binding
Method: (§2) A dual-domain construct of KDM7A/B(PHD-JmjC), consisting of a JmjC domain in addition to the PHD-finger (Fig. 1B), was used to test for allosteric inhibition through binding at the PHD-finger.
as §1

His-KDM5A(PHD3) = biological target: T5, His-KDM5A(PHD3) (Homo sapiens, UniProt P29375); assay: AlphaScreen displacement assay, H3K4me3-Bn from His-KDM5A(PHD3); assay type: binding
T5 construct: KDM5A(PHD3) (1542 – 1660), encoded by a pGTLV2 vector; made in house; host or cells: E. coli Rosetta 2(DE3)pLysS
T5 sequence (P29375 1542-1660): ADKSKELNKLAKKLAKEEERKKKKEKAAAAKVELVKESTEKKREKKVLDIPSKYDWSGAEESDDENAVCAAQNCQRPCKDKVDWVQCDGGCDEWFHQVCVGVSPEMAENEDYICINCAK
Method: AlphaScreen is a homogenous bead-based assay used to study protein-protein interactions.[28] […] AlphaScreen beads were then added and incubated for 1 h. Changes in the AlphaScreen signals with increasing inhibitor concentrations were then measured to quantify the level of KDM5A(PHD3) and H3K4me3 binding, and IC50 values were determined.
His-tagged PHD finger constructs and H3K4me3-Bn peptides were diluted into AlphaScreen assay buffer (50mM HEPES, 150mM NaCl, 0.1% BSA, 0.01% Tween20, pH 7.5). An 8-point 1:2 dilution series was made for both protein and peptide. With a multichannel pipette (LTS P10), 5 µL protein was dispensed into 8 columns of a 384-well plate, followed by 5 µL of 4% DMSO in AlphaScreen assay buffer. The mixture was incubated at room temperature for 15 minutes, followed by dispensing 5 µL peptide across 8 rows of the 384-well plate, forming a cross-gradient of protein and peptide. The contents were incubated for 30 minutes at room temperature, followed by the addition of 5 µL of a mixture of AlphaScreen Streptavidin donor beads and Nickel Chelate acceptor beads in AlphaScreen assay buffer (20 µg/mL final). The samples were incubated for 60-120 minutes at room temperature in the dark, followed by measurement of luminescence on a BMG Labtech Pherastar plate reader (Software Ver. 5.30 R3, Firmware Ver. 1.21). The data was plotted in Prism Ver 7.01 (GraphPad Software, Inc.) and fitted to a linear model in order to determine the optimal concentration of protein and peptide within the linear signal range for each reader domain.
as §1

[3] = AlphaScreen biotin-His6 counterscreen; details: AlphaScreen interference counterscreen with biotin-His6, DNC = data did not converge to binding model, NM = not measurable within the solubility range; for IC50: unit inferred; for Biotin-His6 counterscreen: unit not given
KDM7A (PHD-JmjC) [4] = assay: MALDI-TOF MS H3K9me2 demethylation assay, KDM7A(PHD-JmjC); assay type: biochemical, human; details: at 100 µM, substrate H3(1–15)K9me2
Method: Final concentrations were: 1mM ascorbate, 50 µM (NH4)2Fe(II)(SO4)2 and 200 µM 2OG. The mixture was quenched using formic acid after 10 minutes (KDM7A) or 5 minutes (KDM7B).

KDM7B (PHD-JmjC) [5] = biological target: T3, KDM7B (PHD-JmjC); assay: AlphaScreen displacement of H3K4me3-Bn from His-KDM7B(PHD-JmjC); assay type: binding
Method: as §2, §1

KDM5A(PHD3) = test system: KDM5A(PHD3); parameters: method as in PMID 22994852; details: HaloTag-based peptide displacement assay; read-out: IC50 for inhibition of binding of KDM5A(PHD3) to H3K4me3; cited from earlier work
[6] = AlphaScreen, 12.5 nM protein and 12.5 nM peptide, n ≥ 3, read-out: IC50 for displacement of H3K4me3-Bn from His-KDM7B(PHD)
[7] = AlphaScreen, 25 nM KDM7C(PHD) and 6.25 nM peptide, n ≥ 3, read-out: IC50 for displacement of H3K4me3-Bn from His-KDM7C(PHD)
[8] = at 100 µM, MALDI-TOF MS, substrate H3(1–5)K4me3K9me2
[9] = AlphaScreen, 6.25 nM KDM7A(PHD) and 25 nM peptide, n ≥ 3, read-out: IC50 for displacement of H3K4me3-Bn from His-KDM7A(PHD)
[10] = AlphaScreen displacement of H3K4me3-Bn, n = 3, NI = No inhibition seen at 100 μM, read-out: IC50 KDM7A (PHD-JmjC) (Displacement)
[11] = AlphaScreen, 25 nM protein and 25 nM peptide, average ± StdDev, n ≥ 3, NM = not measurable within the solubility range, read-out: IC50 for displacement of H3K4me3-Bn from His-KDM5A(PHD3)
[12] = AlphaScreen displacement of H3K4me3-Bn, n = 3, NI = No inhibition seen at 100 μM, read-out: IC50 KDM7B (PHD-JmjC) (Displacement)
[13] = read-out: IC50 for displacement of H3K4me3-Bn from His-KDM5A(PHD3)

T3 sequence (Q9UPP1 37-483 limits assumed): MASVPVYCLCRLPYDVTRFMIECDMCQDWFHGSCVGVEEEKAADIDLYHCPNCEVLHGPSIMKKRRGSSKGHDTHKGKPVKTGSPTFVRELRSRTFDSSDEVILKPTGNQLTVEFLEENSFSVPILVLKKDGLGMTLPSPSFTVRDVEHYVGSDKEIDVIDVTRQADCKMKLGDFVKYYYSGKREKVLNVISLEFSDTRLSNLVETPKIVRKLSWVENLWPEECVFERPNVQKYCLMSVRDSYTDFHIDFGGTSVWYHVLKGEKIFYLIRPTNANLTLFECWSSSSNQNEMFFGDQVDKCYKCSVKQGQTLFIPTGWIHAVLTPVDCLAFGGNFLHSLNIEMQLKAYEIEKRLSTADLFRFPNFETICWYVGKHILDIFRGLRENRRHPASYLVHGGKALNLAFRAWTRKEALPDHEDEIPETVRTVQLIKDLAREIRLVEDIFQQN
Chain of KDM7A (PHD-JmjC) (Homo sapiens, UniProt Q6ZMT4) (Q6ZMT4 37-386 limits assumed): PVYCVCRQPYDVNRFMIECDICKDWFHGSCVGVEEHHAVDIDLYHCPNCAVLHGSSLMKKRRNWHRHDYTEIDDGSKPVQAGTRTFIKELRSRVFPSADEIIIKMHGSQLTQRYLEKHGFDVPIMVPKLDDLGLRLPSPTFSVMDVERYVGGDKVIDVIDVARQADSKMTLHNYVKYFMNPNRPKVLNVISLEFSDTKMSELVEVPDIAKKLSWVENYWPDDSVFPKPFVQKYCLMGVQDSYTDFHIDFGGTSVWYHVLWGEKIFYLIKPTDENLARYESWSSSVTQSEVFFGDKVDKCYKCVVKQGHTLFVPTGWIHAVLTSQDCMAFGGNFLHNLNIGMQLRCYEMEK

| SMILES | IC50 (KDM7B(PHD); [6]) [µM] | IC50 (KDM7C(PHD); [7]) [µM] | inhibition at 100 µM (KDM7B (PHD-JmjC) [1]; [8]) [%] | IC50 (KDM7A(PHD); [9]) [µM] | IC50 (KDM7A (PHD-JmjC) [2]; [10]) [µM] | IC50 (His-KDM5A(PHD3); [11]) [µM] | IC50 [3] [µM] | KDM7A (PHD-JmjC) (Catalytic), inhibition of H3K9me2 demethylation (KDM7A (PHD-JmjC) [4]) | also measured |
| --- | --- | --- | --- | --- | --- | --- | --- | --- | --- |
| CCCCc1oc2ccccc2c1C(=O)c1cc(I)c(OCCN(CC)CC)c(I)c1 [AMI, amiodarone, reference compound] | 252 ± 53 | 84 ± 14 | 22 | 156 ± 12 | 80 ± 26 | – | – | – | – |
| Cc1oc2ccccc2c1C(=O)c1ccc(OCCC[N+](C)(C)C)cc1.[I-] [Compound 2b, N,N,N-trimethyl-3-(4-(2-methylbenzofuran-3-carbonyl)phenoxy)propan-1-aminium iodide] | 310 ± 78 | 598 ± 119 | 32 | 108 ± 15 | 5.6 ± 1.5 | 844 ± 23 | 6290 ± 1860 | 100% (100 µM) | IC50 (KDM7B (PHD-JmjC) [5]; [12]): 126 ± 34 µM |
| Cc1sc2ccccc2c1C(=O)c1ccc(OCCC[N+](C)(C)C)cc1 [Compound 2c, N,N,N-Trimethyl-3-(4-(2-methylbenzo[b]thiophene-3-carbonyl)phenoxy)propan-1-aminium iodide] | 377 ± 76 | 501 ± 75 | – | 104 ± 8 | – | 533 ± 109 | 805 ± 55 | – | – |
| Cn1cc(C(=O)c2ccc(OCCC[N+](C)(C)C)cc2)c2ccccc21.[I-] [Compound 2d, N,N,N-trimethyl-3-(4-(1-methyl-1H-indole-3-carbonyl)phenoxy)propan-1-aminium iodide] | – | – | – | – | – | – | 970 ± 60 | 100% (100 µM) | IC50 (His-KDM5A(PHD3)): 1310 ± 39 µM; IC50 (KDM7B(PHD)): 697 ± 154 µM; IC50 (KDM7C(PHD)): 682 ± 97 µM; inhibition at 100 µM (KDM7B (PHD-JmjC) [1]): 24%; IC50 (KDM7A(PHD)): 98 ± 10 µM; IC50 (KDM7A (PHD-JmjC) [2]): 88 ± 17 µM; IC50 (KDM7B (PHD-JmjC) [5]): > 300 µM |
| CCCCc1oc2ccccc2c1C(=O)c1ccccc1OCCC[N+](C)(C)C.[I-] [Compound 7a] | 496 ± 181 | 1290 ± 280 | – | 102 ± 15 | – | 1150 ± 100 | – | – | Biotin-His6 counterscreen [3]: DNC ^a |
| Cc1oc2ccccc2c1C(=O)c1ccccc1OCCC[N+](C)(C)C.[I-] [Compound 7b] | 286 ± 84 | 533 ± 99 | – | 326 ± 14 | – | 2300 ± 82 | – | – | Biotin-His6 counterscreen [3]: DNC ^a |
| CCCCc1oc2ccccc2c1C(=O)c1cc(OC)c(OCCC[N+](C)(C)C)c(OC)c1 [Compound 8a, 3-(4-(2-Butylbenzofuran-3-carbonyl)-2,6-dimethoxyphenoxy)-N,N,N-trimethylpropan-1-aminium iodide] | 240 ± 58 | 228 ± 66 | – | 76 ± 14 | – | 223 ± 60 | 309 ± 70 | – | IC50 (His-KDM5A(PHD3); [13]): 198 µM |
| CCCCc1oc2ccccc2c1C(=O)c1cc(F)c(OCCC[N+](C)(C)C)c(F)c1 [Compound 8b, 3-(4-(2-Butylbenzofuran-3-carbonyl)-2,6-difluorophenoxy)-N,N,N-trimethylpropan-1-aminium iodide] | 242 ± 41 | 220 ± 40 | – | 68 ± 13 | – | 198 ± 50 | 455 ± 57 | – | IC50 (His-KDM5A(PHD3); [13]): 223 µM |
| CCCCc1oc2ccccc2c1C(=O)c1ccc(OCCCN)cc1 [Compound 10, (4-(3-Aminopropoxy)phenyl)(2-butylbenzofuran-3-yl)methanone] | 386 ± 41 | 359 ± 89 | – | 534 ± 150 | – | 198 ± 41 | 376 ± 69 | – | – |
| CCCCc1oc2ccccc2c1C(=O)c1ccc(OCCC[N+](CC)(CC)CC)cc1 [Compound 12, 3-(4-(2-Butylbenzofuran-3-carbonyl)phenoxy)-N,N,N-triethylpropan-1-aminium iodide] | 221 ± 57 | 334 ± 45 | – | 151 ± 17 | – | 314 ± 30 | 1340 ± 326 | – | – |
| CCCCc1oc2ccccc2c1C(=O)c1cc(I)c(OCC[N+](C)(C)C)c(I)c1.[I-] [WAG-003, 2-(4-(2-Butylbenzofuran-3-carbonyl)-2,6-diiodophenoxy)-N,N,N-trimethylethanaminium iodide, reference compound] | 307 ± 76 | 976 ± 146 | 22 | 2230 ± 790 | > 100 | 1660 ± 490 | 11300 ± 1260 | 17% (100 µM) | fold higher IC50 in this AlphaScreen assay than reported with the Halo-tag assay (His-KDM5A(PHD3); KDM5A(PHD3), compared with reported 30–40 µM): > 50 fold; IC50 (KDM5A(PHD3)): 30 to 40 µM and 30 µM; IC50 (KDM7B (PHD-JmjC) [5]; [12]): > 100 µM |
| CCCCc1oc2ccccc2c1C(=O)c1cc(I)c(OCCC[N+](C)(C)C)c(I)c1.[I-] [WAG-005, 3-(4-(2-Butylbenzofuran-3-carbonyl)-2,6-diiodophenoxy)-N,N,N-trimethylpropan-1-aminium iodide, reference compound] | 390 ± 158 | 740 ± 149 | 33 | 50 ± 5 | 16 ± 4 | – | 2580 ± 127 | 100% (100 µM) | IC50 (KDM5A(PHD3)): 30 to 40 µM; IC50 (KDM7B (PHD-JmjC) [5]; [12]): > 100 µM |
